# According to paper PMC6757289, “Design and Characterization of SGK3-PROTAC1, an Isoform Specific SGK3 Kinase PROTAC Degrader” (ACS Chemical Biology, 2019):
# Like-named read-outs stand apart in the source and are kept apart here.
# Assays:
# [1] = target: T1, SGK1 (Homo sapiens, UniProt O00141, S422D); assay: IC50 determination, biochemical kinase assay; conditions: not in the presence of VHL
# T1 sequence (O00141 60-431 S422D limits assumed): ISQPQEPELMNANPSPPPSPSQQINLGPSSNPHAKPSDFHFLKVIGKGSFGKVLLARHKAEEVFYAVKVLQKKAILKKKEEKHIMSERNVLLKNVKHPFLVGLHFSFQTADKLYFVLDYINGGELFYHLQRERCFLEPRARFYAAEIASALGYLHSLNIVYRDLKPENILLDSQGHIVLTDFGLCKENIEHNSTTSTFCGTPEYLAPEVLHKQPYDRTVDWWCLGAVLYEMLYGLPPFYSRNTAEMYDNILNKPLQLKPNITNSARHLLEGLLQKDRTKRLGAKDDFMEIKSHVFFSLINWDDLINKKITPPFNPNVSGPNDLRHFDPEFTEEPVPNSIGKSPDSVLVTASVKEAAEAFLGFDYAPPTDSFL
# [2] = target: CK1 delta (Homo sapiens, UniProt P48730); assay: kinase profiling panel; format: biochemical; conditions: read-out: % Activity Remaining
# Source text: (§1) Protein kinase profiling against a Dundee panel of 140 protein kinases was undertaken at the International Centre for Protein Kinase Profiling. The result for each kinase was presented as a mean kinase activity of the reaction taken in triplicate relative to a control sample treated with DMSO. Assay conditions and abbreviations are available at http://www.kinase-screen.mrc.ac.uk.
# [3] = target: ERK5 (Homo sapiens, UniProt Q13164); assay: kinase profiling panel; format: biochemical; conditions: read-out: % Activity Remaining
# Source text: as §1
# [4] = target: T2, IKK beta (Homo sapiens, UniProt O14920); assay: kinase profiling panel; format: biochemical; conditions: read-out: % Activity Remaining
# T2 sequence (O14920 1-756): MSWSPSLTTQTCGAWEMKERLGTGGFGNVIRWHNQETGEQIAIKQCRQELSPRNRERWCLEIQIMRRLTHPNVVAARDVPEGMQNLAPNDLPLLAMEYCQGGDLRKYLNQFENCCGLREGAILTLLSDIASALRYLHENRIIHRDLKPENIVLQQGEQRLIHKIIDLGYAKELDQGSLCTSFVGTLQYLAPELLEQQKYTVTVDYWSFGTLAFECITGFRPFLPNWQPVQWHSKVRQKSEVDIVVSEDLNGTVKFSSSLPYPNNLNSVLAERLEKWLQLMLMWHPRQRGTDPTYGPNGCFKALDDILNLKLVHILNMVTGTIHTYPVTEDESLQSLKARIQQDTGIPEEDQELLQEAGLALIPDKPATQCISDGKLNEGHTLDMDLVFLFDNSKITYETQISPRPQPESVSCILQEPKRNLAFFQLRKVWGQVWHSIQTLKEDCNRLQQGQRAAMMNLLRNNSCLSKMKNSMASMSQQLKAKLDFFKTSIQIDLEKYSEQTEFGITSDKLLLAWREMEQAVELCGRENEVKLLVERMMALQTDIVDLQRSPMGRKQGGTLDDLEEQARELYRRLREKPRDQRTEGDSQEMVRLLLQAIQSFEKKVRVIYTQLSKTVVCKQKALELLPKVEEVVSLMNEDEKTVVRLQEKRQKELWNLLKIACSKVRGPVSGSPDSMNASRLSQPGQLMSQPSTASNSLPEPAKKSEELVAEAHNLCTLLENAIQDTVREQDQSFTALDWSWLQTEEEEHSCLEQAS
# Source text: as §1
# [5] = target: MAP4K5 (Homo sapiens, UniProt Q9Y4K4); assay: kinase profiling panel; format: biochemical; conditions: read-out: % Activity Remaining
# Source text: as §1
# [6] = target: MAPKAP-K3 (Homo sapiens, UniProt Q16644); assay: kinase profiling panel; format: biochemical; conditions: read-out: % Activity Remaining
# Source text: as §1
# [7] = target: MPSK1 (Homo sapiens, UniProt O75716); assay: kinase profiling panel; format: biochemical; conditions: read-out: % Activity Remaining
# Source text: as §1
# [8] = target: PKB beta (Homo sapiens, UniProt P31751); assay: kinase profiling panel; format: biochemical; conditions: read-out: % Activity Remaining
# Source text: as §1
# [9] = target: PKC gamma (Homo sapiens, UniProt P05129); assay: kinase profiling panel; format: biochemical; conditions: read-out: % Activity Remaining
# Source text: as §1
# [10] = target: PRK2 (Homo sapiens, UniProt Q16513); assay: kinase profiling panel; format: biochemical; conditions: read-out: % Activity Remaining
# Source text: as §1
# [11] = target: SmMLCK (Homo sapiens, UniProt Q15746); assay: kinase profiling panel; format: biochemical
# Source text: as §1
# PKB beta, sequence (P31751 whole entry): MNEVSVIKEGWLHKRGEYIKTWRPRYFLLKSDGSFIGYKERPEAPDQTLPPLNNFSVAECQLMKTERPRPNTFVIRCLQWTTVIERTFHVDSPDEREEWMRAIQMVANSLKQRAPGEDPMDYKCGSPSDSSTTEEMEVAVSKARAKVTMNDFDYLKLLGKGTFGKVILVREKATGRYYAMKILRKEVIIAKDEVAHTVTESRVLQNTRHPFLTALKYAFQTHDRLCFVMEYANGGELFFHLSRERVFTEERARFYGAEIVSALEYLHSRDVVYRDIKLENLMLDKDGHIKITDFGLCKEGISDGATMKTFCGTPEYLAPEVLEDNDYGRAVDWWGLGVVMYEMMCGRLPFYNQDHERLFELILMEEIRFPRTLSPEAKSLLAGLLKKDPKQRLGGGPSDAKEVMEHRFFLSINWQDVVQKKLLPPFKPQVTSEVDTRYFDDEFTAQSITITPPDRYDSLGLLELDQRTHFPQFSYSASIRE
# SmMLCK, sequence (Q15746 923-1914): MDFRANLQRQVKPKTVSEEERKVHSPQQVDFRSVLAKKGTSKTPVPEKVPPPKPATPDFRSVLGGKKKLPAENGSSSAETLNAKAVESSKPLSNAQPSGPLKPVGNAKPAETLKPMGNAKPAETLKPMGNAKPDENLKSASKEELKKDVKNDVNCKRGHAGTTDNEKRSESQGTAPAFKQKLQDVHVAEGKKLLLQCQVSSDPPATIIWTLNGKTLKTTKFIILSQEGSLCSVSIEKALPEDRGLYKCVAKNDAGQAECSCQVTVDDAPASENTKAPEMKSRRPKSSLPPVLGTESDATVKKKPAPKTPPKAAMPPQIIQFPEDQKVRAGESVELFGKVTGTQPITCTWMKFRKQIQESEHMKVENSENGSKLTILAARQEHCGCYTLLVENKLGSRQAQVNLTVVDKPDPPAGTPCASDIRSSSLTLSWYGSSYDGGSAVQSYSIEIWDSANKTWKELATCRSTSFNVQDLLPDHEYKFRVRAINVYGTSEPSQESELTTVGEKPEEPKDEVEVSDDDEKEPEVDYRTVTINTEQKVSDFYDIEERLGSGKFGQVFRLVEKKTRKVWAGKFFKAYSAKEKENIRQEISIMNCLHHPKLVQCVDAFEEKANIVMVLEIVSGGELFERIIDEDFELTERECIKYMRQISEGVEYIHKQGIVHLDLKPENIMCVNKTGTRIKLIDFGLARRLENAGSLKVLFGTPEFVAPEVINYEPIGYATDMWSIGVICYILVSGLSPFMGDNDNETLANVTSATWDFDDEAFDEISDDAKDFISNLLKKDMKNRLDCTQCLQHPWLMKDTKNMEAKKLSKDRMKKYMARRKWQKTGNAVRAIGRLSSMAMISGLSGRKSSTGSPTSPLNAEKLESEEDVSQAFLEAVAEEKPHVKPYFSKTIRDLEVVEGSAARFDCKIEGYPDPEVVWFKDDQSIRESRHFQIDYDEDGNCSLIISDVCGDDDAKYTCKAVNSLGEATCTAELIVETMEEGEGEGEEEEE
# ERK5, sequence (Q13164 whole entry): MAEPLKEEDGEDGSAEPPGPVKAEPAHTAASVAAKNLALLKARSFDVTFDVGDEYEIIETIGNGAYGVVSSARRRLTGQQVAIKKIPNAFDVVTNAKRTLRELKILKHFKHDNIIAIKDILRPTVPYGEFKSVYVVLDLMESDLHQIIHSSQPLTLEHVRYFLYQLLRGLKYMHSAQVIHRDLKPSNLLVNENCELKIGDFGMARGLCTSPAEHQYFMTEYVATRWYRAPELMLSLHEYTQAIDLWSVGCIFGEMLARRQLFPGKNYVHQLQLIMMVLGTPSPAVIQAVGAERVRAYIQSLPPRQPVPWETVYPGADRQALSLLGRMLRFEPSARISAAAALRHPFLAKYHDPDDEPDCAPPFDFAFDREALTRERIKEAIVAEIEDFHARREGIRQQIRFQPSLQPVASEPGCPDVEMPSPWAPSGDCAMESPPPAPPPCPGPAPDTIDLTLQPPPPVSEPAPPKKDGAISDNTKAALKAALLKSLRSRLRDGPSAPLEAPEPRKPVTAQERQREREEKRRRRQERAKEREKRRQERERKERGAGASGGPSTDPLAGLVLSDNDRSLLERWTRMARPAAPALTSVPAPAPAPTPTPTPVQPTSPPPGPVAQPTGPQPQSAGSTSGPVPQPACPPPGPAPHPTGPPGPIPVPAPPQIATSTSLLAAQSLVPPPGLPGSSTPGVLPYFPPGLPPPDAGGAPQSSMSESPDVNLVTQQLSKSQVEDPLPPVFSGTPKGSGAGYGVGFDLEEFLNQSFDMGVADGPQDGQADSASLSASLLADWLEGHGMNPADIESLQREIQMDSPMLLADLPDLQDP
# CK1 delta, sequence (P48730 whole entry): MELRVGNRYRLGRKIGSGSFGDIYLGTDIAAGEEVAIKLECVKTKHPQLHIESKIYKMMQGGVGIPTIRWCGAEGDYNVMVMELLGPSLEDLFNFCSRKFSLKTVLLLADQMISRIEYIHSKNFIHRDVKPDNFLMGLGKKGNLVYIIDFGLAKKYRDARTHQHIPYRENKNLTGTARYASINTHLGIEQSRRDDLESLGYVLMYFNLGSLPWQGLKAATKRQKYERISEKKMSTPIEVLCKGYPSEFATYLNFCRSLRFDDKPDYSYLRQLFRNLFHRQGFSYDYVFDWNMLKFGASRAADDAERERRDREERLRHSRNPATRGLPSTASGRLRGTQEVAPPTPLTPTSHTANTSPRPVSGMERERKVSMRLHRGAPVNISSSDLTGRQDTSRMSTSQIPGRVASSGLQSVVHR
# MPSK1, sequence (O75716 whole entry): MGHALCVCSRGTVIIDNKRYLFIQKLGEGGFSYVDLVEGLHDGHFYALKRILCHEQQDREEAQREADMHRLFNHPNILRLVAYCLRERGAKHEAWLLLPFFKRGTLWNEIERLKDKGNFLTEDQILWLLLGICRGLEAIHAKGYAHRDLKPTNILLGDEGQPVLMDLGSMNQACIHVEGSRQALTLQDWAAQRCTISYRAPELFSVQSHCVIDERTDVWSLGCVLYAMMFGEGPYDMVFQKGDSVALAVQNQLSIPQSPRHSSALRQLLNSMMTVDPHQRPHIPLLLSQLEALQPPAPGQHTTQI
# MAPKAP-K3, sequence (Q16644 whole entry): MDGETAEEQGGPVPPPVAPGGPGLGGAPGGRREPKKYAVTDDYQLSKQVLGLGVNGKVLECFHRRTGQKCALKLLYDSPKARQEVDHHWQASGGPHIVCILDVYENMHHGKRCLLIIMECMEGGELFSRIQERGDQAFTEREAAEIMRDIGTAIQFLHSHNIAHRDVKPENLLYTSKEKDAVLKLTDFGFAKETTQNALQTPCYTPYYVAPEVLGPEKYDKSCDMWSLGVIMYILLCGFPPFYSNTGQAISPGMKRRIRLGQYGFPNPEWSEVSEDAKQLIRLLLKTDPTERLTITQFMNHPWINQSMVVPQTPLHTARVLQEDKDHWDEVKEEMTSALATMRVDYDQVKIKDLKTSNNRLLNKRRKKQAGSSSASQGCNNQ
# MAP4K5, sequence (Q9Y4K4 whole entry): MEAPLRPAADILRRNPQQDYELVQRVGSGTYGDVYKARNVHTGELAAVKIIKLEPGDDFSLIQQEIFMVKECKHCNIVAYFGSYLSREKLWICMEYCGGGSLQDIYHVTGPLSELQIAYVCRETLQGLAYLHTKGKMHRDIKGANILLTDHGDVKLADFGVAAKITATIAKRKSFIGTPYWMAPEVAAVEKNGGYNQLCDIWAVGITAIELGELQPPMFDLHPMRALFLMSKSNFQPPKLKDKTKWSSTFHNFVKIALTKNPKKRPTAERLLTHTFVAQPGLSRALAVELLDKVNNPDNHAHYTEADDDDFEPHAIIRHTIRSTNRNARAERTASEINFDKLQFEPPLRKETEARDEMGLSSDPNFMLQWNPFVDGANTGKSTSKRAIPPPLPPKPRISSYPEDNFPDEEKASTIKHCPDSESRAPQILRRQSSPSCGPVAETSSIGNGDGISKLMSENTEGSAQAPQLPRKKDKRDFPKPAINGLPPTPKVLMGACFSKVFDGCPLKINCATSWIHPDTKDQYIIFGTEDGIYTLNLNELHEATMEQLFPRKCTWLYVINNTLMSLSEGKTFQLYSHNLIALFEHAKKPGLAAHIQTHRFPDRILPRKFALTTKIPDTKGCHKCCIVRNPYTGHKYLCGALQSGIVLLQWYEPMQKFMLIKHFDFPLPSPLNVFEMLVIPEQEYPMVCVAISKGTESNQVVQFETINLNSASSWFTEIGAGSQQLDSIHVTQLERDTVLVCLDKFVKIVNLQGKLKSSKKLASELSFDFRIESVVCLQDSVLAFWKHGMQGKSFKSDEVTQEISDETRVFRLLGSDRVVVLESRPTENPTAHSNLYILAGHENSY
smiles,measurement,setting,value
COc1ccc(Cl)c(S(=O)(=O)Nc2ccc(-c3nc(OC[C@H]4CN(CCCCCCOCCOCCOCCOCC(=O)N[C@H](C(=O)N5C[C@H](O)C[C@H]5C(=O)NCc5ccc(-c6scnc6C)cc5)C(C)(C)C)CCO4)c4c(C)n[nH]c4n3)cc2)c1 [DAT11],IC50,[1],1340 nM
Cc1ccc(F)c(S(=O)(=O)Nc2ccc(-c3nc(OC[C@H]4CN(CCOCCOCCOCCOCCOCC(=O)N[C@H](C(=O)N5C[C@H](O)C[C@H]5C(=O)NCc5ccc(-c6scnc6C)cc5)C(C)(C)C)CCO4)c4cn[nH]c4n3)cc2)c1 [DAT7],IC50,[1],> 10000 nM
Cc1ccc(F)c(S(=O)(=O)Nc2ccc(-c3nc(OC[C@H]4CN(CCCCCCOCCOCCOCC(=O)N[C@H](C(=O)N5C[C@H](O)C[C@H]5C(=O)NCc5ccc(-c6scnc6C)cc5)C(C)(C)C)CCO4)c4cn[nH]c4n3)cc2)c1 [SGK3-PROTAC1],IC50,[1],220 nM
same,remaining activity at 1 µM,[2]; 1 µM,95%
same,remaining activity at 1 µM,[3]; 1 µM,102%
same,remaining activity at 1 µM,[4]; 1 µM,100%
same,remaining activity at 1 µM,[5]; 1 µM,99%
same,remaining activity at 1 µM,[6]; 1 µM,79%
same,remaining activity at 1 µM,[7]; 1 µM,127%
same,remaining activity at 1 µM,[8]; 1 µM,99%
same,remaining activity at 1 µM,[9]; 1 µM,103%
same,remaining activity at 1 µM,[10]; 1 µM,105%
same,remaining activity at 1 µM,[11],53%
"Cc1ccc(F)c(S(=O)(=O)Nc2ccc(-c3nc(OC[C@H]4CNCCO4)c4cn[nH]c4n3)cc2)c1 [308-R, reference compound]",remaining activity at 1 µM,[2],121%
same,remaining activity at 1 µM,[3],73%
same,remaining activity at 1 µM,[4],67%
same,remaining activity at 1 µM,[5],63%
same,remaining activity at 1 µM,[6],83%
same,remaining activity at 1 µM,[7],116%
same,remaining activity at 1 µM,[8],35%
same,remaining activity at 1 µM,[9],90%
same,remaining activity at 1 µM,[10],82%
same,remaining activity at 1 µM,[11],74%
Cc1ccc(F)c(S(=O)(=O)Nc2ccc(-c3nc(OC[C@H]4CN(CCOCCOCCOCCOCC(=O)N[C@H](C(=O)N5C[C@H](O)C[C@H]5C(=O)NCc5ccc(-c6scnc6C)cc5)C(C)(C)C)CCO4)c4cn[nH]c4n3)cc2)c1 [DAT6],IC50,[1],> 10000 nM
Cc1ccc(F)c(S(=O)(=O)Nc2ccc(-c3nc(OC[C@H]4CN(CCOCCOCC(=O)N[C@H](C(=O)N5C[C@H](O)C[C@H]5C(=O)NCc5ccc(-c6scnc6C)cc5)C(C)(C)C)CCO4)c4cn[nH]c4n3)cc2)c1 [DAT5],IC50,[1],> 10000 nM
Cc1ccc(F)c(S(=O)(=O)Nc2ccc(-c3nc(OC[C@H]4CN(CCOCCOCCOCC(=O)N[C@H](C(=O)N5C[C@H](O)C[C@H]5C(=O)NCc5ccc(-c6scnc6C)cc5)C(C)(C)C)CCO4)c4cn[nH]c4n3)cc2)c1 [DAT1],IC50,[1],1600 nM
Cc1ccc(F)c(S(=O)(=O)Nc2ccc(-c3nc(OC[C@H]4CN(CCCCCCOCCCCCCOCC(=O)N[C@H](C(=O)N5C[C@H](O)C[C@H]5C(=O)NCc5ccc(-c6scnc6C)cc5)C(C)(C)C)CCO4)c4cn[nH]c4n3)cc2)c1 [DAT10],IC50,[1],> 10000 nM
"COc1ccc(Cl)c(S(=O)(=O)Nc2ccc(-c3nc(OC[C@H]4CNCCO4)c4c(C)n[nH]c4n3)cc2)c1 [290-R, reference compound]",IC50,[1],19 nM
same,remaining activity at 1 µM,[2],65%
same,remaining activity at 1 µM,[3],84%
same,remaining activity at 1 µM,[4],102%
same,remaining activity at 1 µM,[5],19%
same,remaining activity at 1 µM,[6],105%
same,remaining activity at 1 µM,[7],82%
same,remaining activity at 1 µM,[8],55%
same,remaining activity at 1 µM,[9],101%
same,remaining activity at 1 µM,[10],76%
same,remaining activity at 1 µM,[11],23%
Cc1ccc(F)c(S(=O)(=O)Nc2ccc(-c3nc(OC[C@H]4CN(CCCCCCOCCOCCOCC(=O)N[C@H](C(=O)N5C[C@@H](O)C[C@H]5C(=O)NCc5ccc(-c6scnc6C)cc5)C(C)(C)C)CCO4)c4cn[nH]c4n3)cc2)c1 [cisSGK3-PROTAC1],IC50,[1],1400 nM
same,remaining activity at 1 µM,[2]; 1 µM,108%
same,remaining activity at 1 µM,[3]; 1 µM,108%
same,remaining activity at 1 µM,[4]; 1 µM,101%
same,remaining activity at 1 µM,[5]; 1 µM,101%
same,remaining activity at 1 µM,[6]; 1 µM,77%
same,remaining activity at 1 µM,[7]; 1 µM,139%
same,remaining activity at 1 µM,[8]; 1 µM,101%
same,remaining activity at 1 µM,[9]; 1 µM,100%
same,remaining activity at 1 µM,[10]; 1 µM,101%
same,remaining activity at 1 µM,[11],71%
